Earlier results as cited in patent US11008566B2, “Method for obtaining antibody” (Chiome Bioscience Inc., priority 2016, dated 2021).

Conditions: antibody drugs, Non Patent Literatures 1 and 2

- Kd: 0.046 nM
Substance: Lucentis: antibody drug (registered trademark), high-affinity antibody
